{"source": "patent US12503469B2", "about": "“Forms of methyl {4,6-diamino-2-[1-(2-fluorobenzyl)-1H-pyrazolo[3-4-b]pyridino-3-yl]pyrimidino-5-yl} methyl carbamate” (Adverio Pharma GmbH, priority 2013, dated 2025)", "experiment": "Solid-state stability of the forms of the compound of formula (I)", "type": "physicochemical"}
{"smiles": "COC(=O)N(C)c1c(N)nc(-c2nn(Cc3ccccc3F)c3ncccc23)nc1N", "note": "[Modification I, methyl {4,6-diamino-2-[1-(2-fluorobenzyl)-1H-pyrazolo[3,4-b]pyridino-3-yl]pyrimidino-5-yl}methylcarbamate]", "values": [{"measurement": "thermodynamic stability of the form", "setting": "between 0° C. and 80° C.", "result": "thermodynamically stable form between 0 °C and 80 °C"}]}
{"smiles": "COC(=O)N(C)c1c(N)nc(-c2nn(Cc3ccccc3F)c3ncccc23)nc1N", "note": "[amorphous form, methyl {4,6-diamino-2-[1-(2-fluorobenzyl)-1H-pyrazolo[3,4-b]pyridin-3-yl]pyrimidin-5-yl}methylcarbamate]", "values": [{"measurement": "stability of the amorphous form against crystallization", "setting": "room temperature", "result": "can exist at room temperature, but crystallizes very quickly"}]}
